From patent US20200339537A1, “NOVEL COMPOUND AS INHIBITOR AGAINST BINDING OF PF34 PROTEIN TO NEDD4-1 PROTEIN AND USE THEREOF” (ENHANCEDBIO INC., priority 2017, published 2020)

Key:
[1] = tested on: PTEN (lipid phosphatase activity) in human colon cancer cell line SW620; assay: cells; assay type: cell-based; details: Homo sapiens, SW-620, 48 h, compound 5 μM, PTEN immunoprecipitation, diC8-PIP3 substrate, Biomol Green, read-out: PTEN activity (relative fold @5 μM)
[2] = biological target: T1, binding between p34 protein and NEDD4-1 protein (Homo sapiens, UniProt P46934+Q9UHV2); assay: Inhibitory activity on binding between p34 and NEDD4-1, FRET (HTRF) assay; details: pH 7.4, compound 10 μM; 1×PBS pH 7.4, 0.1% BSA, 2% DMSO; 384-well
T1 construct: FLAG or 6xHis (known only from the detection antibodies)
T1 sequence (P46934 1-1319): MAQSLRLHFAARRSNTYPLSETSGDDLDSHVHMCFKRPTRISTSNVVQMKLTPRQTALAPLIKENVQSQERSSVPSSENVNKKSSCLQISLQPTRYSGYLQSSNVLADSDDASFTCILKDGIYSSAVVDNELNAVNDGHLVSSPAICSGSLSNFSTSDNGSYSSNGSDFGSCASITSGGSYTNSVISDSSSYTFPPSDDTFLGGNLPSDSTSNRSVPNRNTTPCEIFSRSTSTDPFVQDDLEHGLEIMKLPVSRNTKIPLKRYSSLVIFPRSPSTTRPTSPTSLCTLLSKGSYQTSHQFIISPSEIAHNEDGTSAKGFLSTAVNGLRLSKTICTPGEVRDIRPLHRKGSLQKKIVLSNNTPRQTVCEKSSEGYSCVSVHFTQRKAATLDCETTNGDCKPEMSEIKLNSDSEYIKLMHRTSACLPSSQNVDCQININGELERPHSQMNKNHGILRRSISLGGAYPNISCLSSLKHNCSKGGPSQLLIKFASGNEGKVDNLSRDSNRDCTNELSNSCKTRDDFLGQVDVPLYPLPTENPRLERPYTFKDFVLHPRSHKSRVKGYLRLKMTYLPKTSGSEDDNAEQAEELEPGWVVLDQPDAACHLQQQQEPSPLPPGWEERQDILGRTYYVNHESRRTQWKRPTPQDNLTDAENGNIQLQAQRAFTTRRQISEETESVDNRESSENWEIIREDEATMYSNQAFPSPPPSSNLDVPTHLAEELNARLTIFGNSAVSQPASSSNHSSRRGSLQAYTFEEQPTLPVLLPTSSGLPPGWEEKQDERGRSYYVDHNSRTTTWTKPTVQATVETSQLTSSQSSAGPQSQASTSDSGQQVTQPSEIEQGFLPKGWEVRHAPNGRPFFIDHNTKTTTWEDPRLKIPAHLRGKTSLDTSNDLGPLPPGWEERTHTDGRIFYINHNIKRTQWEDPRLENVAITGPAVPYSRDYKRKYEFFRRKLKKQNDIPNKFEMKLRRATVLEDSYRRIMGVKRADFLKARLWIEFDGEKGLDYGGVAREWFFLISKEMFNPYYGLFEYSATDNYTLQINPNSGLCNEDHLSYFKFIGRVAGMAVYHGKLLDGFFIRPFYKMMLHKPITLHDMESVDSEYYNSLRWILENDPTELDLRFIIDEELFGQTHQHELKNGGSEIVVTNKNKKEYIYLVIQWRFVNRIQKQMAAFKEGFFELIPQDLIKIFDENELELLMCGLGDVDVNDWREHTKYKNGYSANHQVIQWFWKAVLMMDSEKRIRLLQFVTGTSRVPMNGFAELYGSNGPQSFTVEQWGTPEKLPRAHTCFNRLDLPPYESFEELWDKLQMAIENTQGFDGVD
T1 sequence (Q9UHV2 1-236): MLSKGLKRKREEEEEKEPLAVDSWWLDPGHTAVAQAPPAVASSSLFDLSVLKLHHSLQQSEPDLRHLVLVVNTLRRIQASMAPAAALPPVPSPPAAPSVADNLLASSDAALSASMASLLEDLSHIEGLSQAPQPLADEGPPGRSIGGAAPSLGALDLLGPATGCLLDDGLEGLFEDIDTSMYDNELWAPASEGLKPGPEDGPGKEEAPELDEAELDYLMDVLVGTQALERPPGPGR
Description: Inhibitory activity of the compound on binding between p34 and NEDD4-1 was evaluated using p34 protein and NEDD4-1 protein based on the HTRF technology developed by Cisbio. In this assay, a fluorescence resonance energy transfer (FRET) signal was measured in the presence of terbium-labeled anti-FLAG antibody and d2-labeled anti-6XHis antibody. Experiments were performed in 384-well plates under a condition of 1×PBS pH 7.4, 0.1% BSA, and 2% DMSO. A background signal was measured in the absence of the p34-NEDD4-1 proteins, and a non-inhibiting signal was measured with addition of only a solvent (2% DMSO). […] Subsequently, inhibitory activity of the compound on p34-NEDD4-1 was calculated in %.

Compound	fold induction at 5 µM [1]	inhibition at 10 µM [2]
O=C(NCc1nccs1)N1CCN(Cc2ccc3[nH]ccc3c2)CC1 [Example 80]	2.1	49.7%
O=C(NCc1nc2ccc(F)cc2[nH]1)C1CCN(Cc2ccc3[nH]ccc3c2)CC1 [Example 14]	3.8	44.1%
O=C(C1CCN(Cc2c[nH]c3ccc(C(F)(F)F)cc23)CC1)N1CCn2cc(C(F)(F)F)nc2C1 [Example 30]	1.5	59.1%
O=C(NCc1cncs1)N1CCN(Cc2c[nH]c3ccc(Cl)cc23)CC1 [Example 85]	1.9	44%
O=C(NCc1nccs1)N1CCN(Cc2c[nH]c3ccc(F)cc23)CC1 [Example 81]	2.2	50.7%
O=C(NCc1nc2ccccc2[nH]1)C1CCN(Cc2c[nH]c3ccccc23)CC1 [Example 61]	2.1	52.3%
Cc1ccc2[nH]c(C(C)NC(=O)C3CCN(Cc4c[nH]c5ccc(C(F)(F)F)cc45)CC3)nc2c1 (stereo not drawn) [Example 29]	2.2	59.1%
O=C(NCc1nccs1)N1CCN(Cc2n[nH]c3ccccc23)CC1 [Example 79]	2.2	54.4%
O=C(Nc1ccc(C(F)(F)F)cc1)N1CCN(Cc2ccc3[nH]ccc3c2)CC1 [Example 68]	1.8	49.6%
O=C(NCc1cncs1)N1CCN(Cc2ccc3cc[nH]c3c2)CC1 [Example 87]	1.9	48.7%
O=C(NC(Cc1ccccc1)c1nc2ccccc2[nH]1)C1CCN(Cc2c[nH]c3ccc(C(F)(F)F)cc23)CC1 (stereo not drawn) [Example 33]	2.5	41.2%
O=C(Nc1ccccn1)N1CCN(Cc2ccc3[nH]ccc3c2)CC1 [Example 72]	1.9	55.5%
Cc1[nH]c2ccc(CN3CCN(C(=O)NCc4cncs4)CC3)cc2c1C [Example 89]	2	31.5%
O=C(NCc1nc2cc(Cl)ccc2[nH]1)C1CCN(Cc2c[nH]c3ccc(Cl)cc23)CC1 [Example 4]	1.8	30.6%
O=C(NCc1cncs1)C1CCN(Cc2c[nH]c3ccc(C(F)(F)F)cc23)CC1 [Example 31]	1.5	58.6%
CC(NC(=O)C1CCN(Cc2ccc3[nH]ccc3c2)CC1)c1nc2ccccc2[nH]1 (stereo not drawn) [Example 13]	3.2	38.9%
O=C(NCc1nc2ccccc2[nH]1)C1CCN(Cc2c[nH]c3ccc(Cl)cc23)CC1 [Example 45]	2.8	33.8%
O=C(NCc1cncs1)N1CCN(Cc2ccc3[nH]ccc3c2)CC1 [Example 84]	2.9	44.1%
CC(NC(=O)C1CCN(Cc2c[nH]c3ccc(C(F)(F)F)cc23)CC1)c1nc2ccccc2[nH]1 (stereo not drawn) [Example 34]	1.9	59.6%
Cc1ccc2nc(CNC(=O)C3CCN(Cc4ccc5[nH]ccc5c4)CC3)[nH]c2c1 [Example 20]	1.9	51.5%
O=C(NCc1nccs1)N1CCN(Cc2ccc3cc[nH]c3c2)CC1 [Example 82]	1.7	47.2%
Cc1ccc2[nH]c(CNC(=O)N3CCN(Cc4c[nH]c5ccc(Cl)cc45)CC3)nc2c1 [Example 71]	1.8	33.7%
O=C(NCc1nc2ccccc2o1)C1CCN(Cc2ccc3[nH]ccc3c2)CC1 [Example 18]	2	30%
O=C(NCc1cncs1)N1CCN(Cc2n[nH]c3ccccc23)CC1 [Example 83]	1.9	41.3%
